{"source": "patent US12275684B2", "about": "“Methods for making and using endoxifen” (Atossa Therapeutics, Inc., priority 2017, dated 2025)", "experiment": "Placebo controlled, dose escalation pharmacokinetic study of oral (Z)-Endoxifen capsules (serum endoxifen; incl. accumulation ratios and dose linearity)", "assay_type": "in vivo, human", "conditions": "for AUC(0-t) / Cmax / Tmax / half-life / AUC(0-inf) / AUC / Vd/F: female, human, serum, po; for AUC(0-inf): read-out: AUC0-inf; for AUC: read-out: AUC to last time point; for Vd/F: read-out: volume of distribution (Vd/F); for time to attain steady state: once daily oral dosing", "excerpt": "An objective of the study was to assess the safety and tolerability of oral (Z)-Endoxifen when administered […] orally as a capsule to healthy female volunteers. A secondary objective was to assess the pharmacokinetics of multiple doses of oral (Z)-Endoxifen in the subjects.\nGenerally, healthy female volunteers aged ≥18 years and ≤65 years were enrolled. 24 participants were enrolled in 3 cohorts and will be administered study drug orally. Three dose levels of orally administered (Z)-Endoxifen were investigated in 3 cohorts. In each cohort participants were randomized to receive an oral (Z)-Endoxifen or placebo in a blinded fashion. Enteric-resistant capsules used in the study were designed as delayed release capsules to resist rupture for at least 30 minutes, but typically, for about 2 hours, under gastric conditions and then open fully in intestinal fluid (DRCaps; Capsugel, a Lonza Company, USA). Enteric-resistant (Swedish Orange size Zero (0); Capsugel, USA) DRCaps capsules manually filled with 1, 2 or 4 mg of (Z)-endoxifen neat in compliance with GMP requirements were used. Placebo capsules contained microcrystalline cellulose an inert common capsule and tablet excipient.\nEach cohort enrolled 8 participants, with 6 participants receiving (Z)-Endoxifen 1 mg capsules orally at 1 mg (Cohort 1), 2 mg (Cohort 2) or 4 mg (Cohort 3) doses and 2 participants receiving matching placebo capsules. In Cohort 1 (Dose Level=1 mg) two participants (sentinels) were dosed 24 hours prior to the remaining participants. One sentinel was dosed with (Z)-Endoxifen and the other with placebo. The remaining six participants in Cohort 1 were dosed as no safety concerns were identified in the sentinel participants. The non-sentinel participants in Cohort 1 were admitted to the clinical research facility at least one day later than the sentinels. There were no sentinels in Cohorts 2 and 3.\nParticipant engagement in this study was for a period of 56 days. These included a 28 day screening period, and a 7 day post treatment period for Pharmacokinetic (PK) sampling. There were two confinement periods, one at the beginning and one at the end of the dosing periods. Participants were confined to the clinical facility on Days-1 through to Day 2 and Days 21 and 22. If participants were to experience any clinically significant adverse events during the study, they would have been required to remain in the clinical facility for further observation at the discretion of the Principal Investigator (PI).\nHealthy female volunteers were screened within 28 days prior to commencement of dosing. Participants were admitted to the clinical facility on Day-1 for up to 3 days. The first dose of (Z)-Endoxifen or placebo capsules was administered on Day 1. Following completion of all safety assessments and sampling for PK analyses, participants were discharged from the clinical facility on Day 2. The first dose on Day 1 was followed by a 6-day treatment free period (Days 2-7). Each participant returned to the clinical facility for PK blood draws and safety assessments during the treatment free period on study Days 4 and 6. On Day 8 participants commenced daily administration of (Z)-Endoxifen capsules or placebo capsules for 14 consecutive days (Days 8-21). Participants were supplied with study drug capsules and asked to self administer daily. Participants visited the clinical facility on Days 11, 14 and 17, prior to dose administration, for PK blood draws and safety assessments. On the morning of Day 21 each participant returned to the clinical facility prior to dose administration and were confined to the facility until Day 22 to allow for the collection of PK blood draws and safety assessments. The Day 21 dose was the last administration of study drug. Participants were discharged from the clinical facility on Day 22 and returned for PK blood draws and safety assessments on study Days 24, 26, and 28. […]", "key": {"[1]": {"conditions": "4 mg, Day 1, dose 4 mg oral, GeoMean, N 6"}, "[2]": {"conditions": "4 mg, Day 1, dose 4 mg oral, Mean, N 6"}, "[3]": {"conditions": "4 mg, Day 1, dose 4 mg oral, Median, N 6"}}, "note": "Where two headings read alike, the source gives them in different places."}
{"smiles": "CC/C(=C(\\c1ccc(O)cc1)c1ccc(OCCNC)cc1)c1ccccc1", "note": "[(Z)-Endoxifen, (Z)-4-(1-(4-(2-(methylamino)ethoxy)phenyl)-2-phenylbut-1-enyl) phenol]", "values": [{"measurement": "AUC(0-t)", "setting": "2 mg/day, Day 21, 2 mg/day oral (n = 6), read-out: AUC24 hr, Arithmetic Mean", "value": 911, "unit": "ng·h/mL"}, {"measurement": "Cmax", "setting": "2 mg/day, Day 21, 2 mg/day oral (n = 6), read-out: Cmax, Arithmetic Mean", "value": 50, "unit": "ng/mL"}, {"measurement": "Tmax", "setting": "2 mg/day, Day 21, 2 mg/day oral (n = 6), read-out: Median Tmax", "value": 4, "unit": "h"}, {"measurement": "Tmax", "setting": "2 mg/day, Day 21, 2 mg/day oral (n = 6), read-out: Tmax (Range)", "value": "2 to 6.05", "unit": "h"}, {"measurement": "half-life", "setting": "2 mg/day, Day 21, 2 mg/day oral (n = 6), read-out: t1/2, Arithmetic Mean (converted)", "value": 43.4, "unit": "h"}, {"measurement": "AUC(0-inf)", "setting": "[1]", "value": 1700, "unit": "ng·h/mL"}, {"measurement": "AUC(0-t)", "setting": "4 mg, Day 1, dose 4 mg oral, GeoMean, N 6, read-out: AUC24hr", "value": 521, "unit": "ng·h/mL"}, {"measurement": "AUC", "setting": "[1]", "value": 1420, "unit": "ng·h/mL"}, {"measurement": "Cmax", "setting": "4 mg, Day 1, dose 4 mg oral, GeoMean, N 6, read-out: Cmax", "value": 29.1, "unit": "ng/mL"}, {"measurement": "Tmax", "setting": "4 mg, Day 1, dose 4 mg oral, GeoMean, N 6, read-out: Tmax", "value": 5.15, "unit": "h"}, {"measurement": "half-life", "setting": "4 mg, Day 1, dose 4 mg oral, GeoMean, N 6, read-out: apparent terminal half life (t½) (converted)", "value": 40.7, "unit": "h"}, {"measurement": "Vd/F", "setting": "[1]", "value": 138, "unit": "L"}, {"measurement": "AUC(0-inf)", "setting": "[2]", "value": 2020, "unit": "ng·h/mL"}, {"measurement": "AUC(0-t)", "setting": "4 mg, Day 1, dose 4 mg oral, Mean, N 6, read-out: AUC24hr", "value": 587, "unit": "ng·h/mL"}, {"measurement": "AUC", "setting": "[2]", "value": 1650, "unit": "ng·h/mL"}, {"measurement": "Cmax", "setting": "4 mg, Day 1, dose 4 mg oral, Mean, N 6, read-out: Cmax", "value": 32.5, "unit": "ng/mL"}, {"measurement": "Tmax", "setting": "4 mg, Day 1, dose 4 mg oral, Mean, N 6, read-out: Tmax", "value": 5.56, "unit": "h"}, {"measurement": "half-life", "setting": "4 mg, Day 1, dose 4 mg oral, Mean, N 6, read-out: apparent terminal half life (t½) (converted)", "value": 41.6, "unit": "h"}, {"measurement": "Vd/F", "setting": "[2]", "value": 154, "unit": "L"}, {"measurement": "AUC(0-inf)", "setting": "[3]", "value": 1760, "unit": "ng·h/mL"}, {"measurement": "AUC(0-t)", "setting": "4 mg, Day 1, dose 4 mg oral, Median, N 6, read-out: AUC24hr", "value": 539, "unit": "ng·h/mL"}, {"measurement": "AUC", "setting": "[3]", "value": 1420, "unit": "ng·h/mL"}, {"measurement": "Cmax", "setting": "4 mg, Day 1, dose 4 mg oral, Median, N 6, read-out: Cmax", "value": 29.5, "unit": "ng/mL"}, {"measurement": "Tmax", "setting": "4 mg, Day 1, dose 4 mg oral, Median, N 6, read-out: Tmax", "value": 5.08, "unit": "h"}, {"measurement": "half-life", "setting": "4 mg, Day 1, dose 4 mg oral, Median, N 6, read-out: apparent terminal half life (t½) (converted)", "value": 39.9, "unit": "h"}, {"measurement": "Vd/F", "setting": "[3]", "value": 131, "unit": "L"}, {"measurement": "AUC(0-t)", "setting": "4 mg, Day 21, dose 4 mg oral once daily, GeoMean, N 6, read-out: AUC24hr", "value": 1740, "unit": "ng·h/mL"}, {"measurement": "Cmax", "setting": "4 mg, Day 21, dose 4 mg oral once daily, GeoMean, N 6, read-out: Cmax", "value": 100, "unit": "ng/mL"}, {"measurement": "Tmax", "setting": "4 mg, Day 21, dose 4 mg oral once daily, GeoMean, N 6, read-out: Tmax", "value": 4.75, "unit": "h"}, {"measurement": "half-life", "setting": "4 mg, Day 21, dose 4 mg oral once daily, GeoMean, N 6, read-out: apparent terminal half life (t½) (converted)", "value": 44.6, "unit": "h"}, {"measurement": "Vd/F", "setting": "4 mg, Day 21, dose 4 mg oral once daily, GeoMean, N 6", "value": 148, "unit": "L"}, {"measurement": "AUC(0-t)", "setting": "4 mg, Day 21, dose 4 mg oral once daily, Mean, N 6, read-out: AUC24hr", "value": 2040, "unit": "ng·h/mL"}, {"measurement": "Cmax", "setting": "4 mg, Day 21, dose 4 mg oral once daily, Mean, N 6, read-out: Cmax", "value": 115, "unit": "ng/mL"}, {"measurement": "Tmax", "setting": "4 mg, Day 21, dose 4 mg oral once daily, Mean, N 6, read-out: Tmax", "value": 5.33, "unit": "h"}, {"measurement": "half-life", "setting": "4 mg, Day 21, dose 4 mg oral once daily, Mean, N 6, read-out: apparent terminal half life (t½) (converted)", "value": 45.1, "unit": "h"}, {"measurement": "Vd/F", "setting": "4 mg, Day 21, dose 4 mg oral once daily, Mean, N 6", "value": 189, "unit": "L"}, {"measurement": "AUC(0-t)", "setting": "4 mg, Day 21, dose 4 mg oral once daily, Median, N 6, read-out: AUC24hr", "value": 2470, "unit": "ng·h/mL"}, {"measurement": "Cmax", "setting": "4 mg, Day 21, dose 4 mg oral once daily, Median, N 6, read-out: Cmax", "value": 131, "unit": "ng/mL"}, {"measurement": "Tmax", "setting": "4 mg, Day 21, dose 4 mg oral once daily, Median, N 6, read-out: Tmax", "value": 5, "unit": "h"}, {"measurement": "half-life", "setting": "4 mg, Day 21, dose 4 mg oral once daily, Median, N 6, read-out: apparent terminal half life (t½) (converted)", "value": 45.3, "unit": "h"}, {"measurement": "Vd/F", "setting": "4 mg, Day 21, dose 4 mg oral once daily, Median, N 6", "value": 106, "unit": "L"}, {"measurement": "AUC(0-t)", "setting": "4 mg/day, Day 1, 4 mg/day oral (n = 6), read-out: AUC24 hr, Arithmetic Mean", "value": 587, "unit": "ng·h/mL"}, {"measurement": "Cmax", "setting": "4 mg/day, Day 1, 4 mg/day oral (n = 6), read-out: Cmax, Arithmetic Mean", "value": 32.5, "unit": "ng/mL"}, {"measurement": "Tmax", "setting": "4 mg/day, Day 1, 4 mg/day oral (n = 6), read-out: Median Tmax", "value": 5.08, "unit": "h"}, {"measurement": "Tmax", "setting": "4 mg/day, Day 1, 4 mg/day oral (n = 6), read-out: Tmax (Range)", "value": "3 to 6", "unit": "h"}, {"measurement": "half-life", "setting": "4 mg/day, Day 1, 4 mg/day oral (n = 6), read-out: t1/2, Arithmetic Mean (converted)", "value": 41.6, "unit": "h"}, {"measurement": "AUC(0-t)", "setting": "4 mg/day, Day 21, 4 mg/day oral (n = 6), read-out: AUC24 hr, Arithmetic Mean", "value": 2040, "unit": "ng·h/mL"}, {"measurement": "Cmax", "setting": "4 mg/day, Day 21, 4 mg/day oral (n = 6), read-out: Cmax, Arithmetic Mean", "value": 115, "unit": "ng/mL"}, {"measurement": "Tmax", "setting": "4 mg/day, Day 21, 4 mg/day oral (n = 6), read-out: Median Tmax", "value": 5, "unit": "h"}, {"measurement": "Tmax", "setting": "4 mg/day, Day 21, 4 mg/day oral (n = 6), read-out: Tmax (Range)", "value": "2 to 10", "unit": "h"}, {"measurement": "half-life", "setting": "4 mg/day, Day 21, 4 mg/day oral (n = 6), read-out: t1/2, Arithmetic Mean (converted)", "value": 45.1, "unit": "h"}, {"measurement": "time to attain steady state", "value": "≤ 7", "unit": "days"}, {"measurement": "time to attain steady state", "setting": "listed as (Z)-endoxifen", "value": "approximately 7 days"}]}
